Where a SMILES comes first, the peptide text is derived from it. [ ]: non-standard residue; d: D form. Gla = N[C@@H](CC(C(=O)O)C(=O)O)C(=O)O
What was measured:
NMDA receptor = assay type: binding
in vitro = conditions: Frings audiogenic, mouse

SMILES | IC50 (NMDA receptor) [nM] | half-life (in vitro; brain homogenate) [min] | half-life (in vitro; tissue homogenate) [min]
CC[C@H](C)[C@H](NC(=O)[C@H](CC(C)C)NC(=O)[C@H](C)NC(=O)[C@H](CCC(N)=O)NC(=O)[C@H](CC(N)=O)NC(=O)[C@H](C)NC(=O)[C@H](CCC(N)=O)NC(=O)[C@H](CC(C)C)NC(=O)[C@H](CC(C(=O)O)C(=O)O)NC(=O)[C@H](CC(C(=O)O)C(=O)O)NC(=O)[C@H](CCC(=O)O)NC(=O)CN)C(N)=O [(A^7,10)1-12] (H-GE[Gla][Gla]LQANQALI-NH2; N-terminus assumed) | 300 | – | –
CC[C@H](C)[C@H](NC(=O)[C@H](CC(C)C)NC(=O)[C@H](CC(C(=O)O)C(=O)O)NC(=O)[C@H](CCC(N)=O)NC(=O)[C@H](CC(N)=O)NC(=O)[C@H](CC(C(=O)O)C(=O)O)NC(=O)[C@H](CCC(N)=O)NC(=O)[C@H](CC(C)C)NC(=O)[C@H](CCC(=O)O)NC(=O)[C@H](CC(C(=O)O)C(=O)O)NC(=O)[C@H](CCC(=O)O)NC(=O)CN)C(=O)N[C@@H](CCCNC(=N)N)C(=O)N[C@@H](CC(C(=O)O)C(=O)O)C(=O)N[C@@H](CCCCN)C(=O)N[C@@H](CO)C(=O)N[C@@H](CC(N)=O)C(N)=O [E^4] | ≥ 20000 | – | –
CC[C@H](C)[C@H](NC(=O)[C@H](CC(C)C)NC(=O)[C@H](Cc1ccc(O)cc1)NC(=O)[C@H](CCC(N)=O)NC(=O)[C@H](CC(N)=O)NC(=O)[C@H](C)NC(=O)[C@H](CCC(N)=O)NC(=O)[C@H](CC(C)C)NC(=O)[C@H](CC(C(=O)O)C(=O)O)NC(=O)[C@H](CC(C(=O)O)C(=O)O)NC(=O)[C@H](CCC(=O)O)NC(=O)CN)C(=O)N[C@@H](CCCNC(=N)N)C(=O)N[C@@H](CC(C(=O)O)C(=O)O)C(=O)N[C@@H](CCCCN)C(=O)N[C@@H](CO)C(=O)N[C@@H](CC(N)=O)C(N)=O [A^7,Y^10] (H-GE[Gla][Gla]LQANQYLIR[Gla]KSN-NH2; N-terminus assumed) | 79 | – | –
CC[C@H](C)[C@H](NC(=O)[C@H](CC(C)C)NC(=O)[C@H](CCC(=O)O)NC(=O)[C@H](CCC(N)=O)NC(=O)[C@H](CC(N)=O)NC(=O)[C@H](CCC(=O)O)NC(=O)[C@H](CCC(N)=O)NC(=O)[C@H](CC(C)C)NC(=O)[C@H](CCC(=O)O)NC(=O)[C@H](CCC(=O)O)NC(=O)[C@H](CCC(=O)O)NC(=O)CN)C(=O)N[C@@H](CCCNC(=N)N)C(=O)N[C@@H](CCC(=O)O)C(=O)N[C@@H](CCCCN)C(=O)N[C@@H](CO)C(=O)N[C@@H](CC(N)=O)C(N)=O [ECon G] | – | 1.6 | 0.425
CC[C@H](C)[C@H](NC(=O)[C@H](CC(C)C)NC(=O)[C@H](C)NC(=O)[C@H](CCC(N)=O)NC(=O)[C@H](CC(N)=O)NC(=O)[C@H](C)NC(=O)[C@H](CCC(N)=O)NC(=O)[C@H](CC(C)C)NC(=O)[C@H](CC(C(=O)O)C(=O)O)NC(=O)[C@H](CC(C(=O)O)C(=O)O)NC(=O)[C@H](CCC(=O)O)NC(=O)CN)C(=O)N[C@@H](CCCNC(=N)N)C(N)=O [(A^7,10)1-13] (H-GE[Gla][Gla]LQANQALIR-NH2; N-terminus assumed) | 253 | – | –

Source: patent US6515103B1 (priority 1996, dated 2003)
